One experiment deals with T1, BRD4-1 (Homo sapiens, UniProt O60885).
T1 construct: purchased Reaction Biology Corp., Malvern, Pa; (contract assay service)
Put plainly: Bromodomain protein inhibition IC50, binding domain 1 of BRD4 (Reaction Biology Corp.). The settings on record: 10-point curve. The text has this: The inhibitory activity of a compound of the invention against PI3K and/or BRD4 and/or SYK and/or CDK4/6 can be readily determined using methods known to the skilled artisan, or by commercial vendors offering such services. […] In vivo, PI3K inhibition can be determined from target tissue biopsies by standard tissue processing to disrupt cells and then performing Western Blot analysis to determine the presence or absence of pAKT (substrate of PI3K) relative to a control sample. The activity of a compound of the invention as an inhibitor of a bromodomain-containing protein, such as a BET protein, such as BRD2, BRD3, BRD4, and/or BRDT, or an isoform or mutant thereof, may be determined in vitro, in vivo, or in a cell line. In vitro assays include assays that determine inhibition of bromodomain-containing proteins. Alternatively, inhibitor binding may be determined by running a competition experiment where a provided compound is incubated with a bromodomain-containing protein, such as a BET protein bound to known ligands, labeled or unlabeled. For example, bromodomain inhibition can be determined in vitro using Alpha Screen Technology (http://www.reactionbiologv.com/webapps/site/NewsPDFs/Bromodomain%20Assay %20Platform %20for %20Drug %20Screening %20and %20Discovery.pdf). In vivo bromodomain inhibition can be determined indirectly by evaluating the amount of protein present of proteins whose genes' transcription is influenced or controlled by the bromodomain protein, for example, the MYCN protein transcription is controlled by BRD4 (J. E. Delmore et al., Cell 2011, 146, 904-917; A. Puissant, Cancer Discov. 2013, 3, 308-323). Bromodomain inhibition may also be predicted by in silico modeling as described below in the Examples. Additionally, the company Promega offers a SYK luminescent assay to determine a compound's ability to inhibit the SYK protein (https://www.promega.com/-/media/files/resources/protocols/kinase-enzyme-appnotes/syk-kinase-assay-protocol.pdf?la=en).
Compounds of the invention were characterized for their ability to inhibit target proteins using third party vendors offering such services. PI3K alpha, gamma, and delta inhibition activity was determined by Thermo Fisher Scientific-Biosciences Life Sciences Solutions, Madison, Wis. The bromodomain protein inhibition (binding domain 1 and 2 of BRD4) as well as SYK inhibition was determined at Reaction Biology Corp., Malvern, Pa. […] The IC50 data (shown below in Table 5) was calculated from a 10-point curve and is expressed in nanomolar concentration (nM) rounded off to the nearest whole number. […]

Experiment [1] in a line: LLC tumor growth in immunocompetent WT mice. It counts as in vivo. The note with it: CT26, LLC and MC38 in immunocompetent mice. The text has this:
We investigated the effect of Compound 3 on immune cell in vitro and on tumor growth in in vivo in immunocompetent syngeneic tumor models and the effects on the macrophage and T cell immune compartment in vivo by this compound. […] In order to distinguish whether Compound 3 blocks tumor growth due to its effect on immune cell compartment and not on tumor compartment, we tested the effect of this chemotype on CT26 tumor growth in immunodeficient NSG mice vs immunocompetent Balb/c mice. […] Compound 3 has combinatorial immune-oncologic activity in vivo to stimulate anti-cancer innate and adaptive immunity in well-defined accepted immune competent murine models for cancer immunotherapy.
Compound 3: a novel dual Syk/PI3K inhibitory chemotype: Combinatorial inhibition of Syk and PI3K increases anti-tumor innate and adaptive T cell immune response in vivo. Tumor volume of LLC inoculated subcutaneously in WT mice treated with 10 mg/Kg Compound 3 (n=9, ***p<0.0001, t test). Conclusion: Compound 3 suppressed tumor growth of LLC by 68% in this immunocompetent immune-oncology model system as compared to vehicle control treated mice.
In contrast to above data, Compound 3 has a marked significant inhibitory effect on CT26, LLC and MC38 tumor growth in immunocompetent murine models. Conclusion: this establishes effect of Compound 3 as immune-oncologically active agent in cancer immunotherapy. […]

For experiment [2], the system named is tumor associated macrophages (TAMs) from LLC tumors. In words: RT-PCR gene expression in tumor associated macrophages sorted from LLC tumors. The format is in vivo, mice. The text has this:
RT-PCR analysis of cDNAs generated from mRNAs reflecting tumor associated macrophages (TAMs) isolated from LLC tumors grown in WT animals and treated with Compound 3. ***p<0.001**p<0.01 and *p<0.05, t test. […] Expression of gene of interest is normalized to GAPDH. […] Statistical significance is accessed by t test. For example, Compound 3 augmented IL1 gene expression in TAMs 8-fold and suppressed Arginase (Arg) 98% in TAMs isolated from LLC tumors in vivo.

Experiment [3] concerns Bone marrow derived macrophages (BMDMs), M2 gene expression. In words: M2 marker mRNA in IL4 stimulated bone marrow derived macrophages (RT PCR). It counts as cell-based, murine. The procedure:
Bone marrow derived macrophages (MOs) (BMDMs) were exposed to IL4 or LPS for 24 hours to stimulate the M2 or M1 macrophage transition in presence of Compound 1 and the known SYK inhibitor Bay-61-3606 at 1 μM conc. M2 markers Mmr, Ym1, Fizz1 and Mgl mRNA and M1 markers I11, 116 and Tnfa mRNA was quantitated by RT PCR. Values are mean±SEM (n=3-4). Expression of gene of interest is normalized to GAPDH. […] The data provide direct evidence that Compound 1 can block the immunosuppressive macrophage M2 gene expression and activate the M1 gene expression and therefore activate antitumor innate immune cell differentiation in vitro.
Relative mRNA expression of IL4 or LPS polarized genes in murine bone marrow derived macrophages (BMDMs) treated with various concentrations of inhibitors in vitro. Conclusion: Compound 3 suppressed in vitro macrophage specific immunosuppressive M2 gene expression markers and augmented macrophage stimulatory immune response M1 genes respectively.

[4] abbreviates: LLC tumors in WT animals, vs vehicle.
The mark [5] stands for this setting: TAMs isolated from LLC tumors in vivo, vs vehicle.
The mark [6] stands for this setting: Table 7, 200 nM, IL4 polarized murine BMDMs, control = 1.

Take `Cc1nn(-c2ccnc(Nc3ccc(-c4csc5c(=O)cc(N6CCOCC6)oc45)cc3)n2)cc1CN1CCC1` [Compound 3, 3-[p-(4-{4-[(1-Azetidinyl)methyl]-3-methyl-1H-pyrazol-1-yl}-2-pyrimidinylamino)phenyl]-5-morpholino-4-oxa-1-thia-7-indenone]: the IC50 (usually the concentration that gives 50% inhibition) on BRD4-1 was in the range of 1000 to 5000 nM. The “tumor growth inhibition across models” value in experiment [1] is on record as 58-68%. Moreover, in experiment [2] (setting [4]), the “expression of immune response genes in TAMs” value was “activated the expression of immune response genes” and the “expression of macrophage M2 immunosuppressive genes in TAMs” value is “suppressed the expression of macrophage M2 immunosuppressive genes”. For the same molecule, the “Nos2 gene expression in macrophages sorted from LLC tumors” value in experiment [2] (TAMs from LLC tumors in treated WT mice, normalized to GAPDH, vehicle 0.95 ± 0.06) was found to be 21 ± 0.19. Also, the “Vegf gene expression in macrophages sorted from LLC tumors” value in experiment [2] (TAMs from LLC tumors in treated WT mice, normalized to GAPDH, vehicle 0.995 ± 0.06) was determined as 0.56 ± 0.05. Besides, the “Il1 gene expression in macrophages sorted from LLC tumors” value in experiment [2] (TAMs from LLC tumors in treated WT mice, normalized to GAPDH, vehicle 1.0 ± 0.04) was 8.3 ± 1.43. Besides, the “Ifng gene expression in macrophages sorted from LLC tumors” value in experiment [2] (TAMs from LLC tumors in treated WT mice, normalized to GAPDH, vehicle 1 ± 0.3) was found to be 3.26 ± 1.04. The “Il6 gene expression in macrophages sorted from LLC tumors” value in experiment [2] (TAMs from LLC tumors in treated WT mice, normalized to GAPDH, vehicle 1.0 ± 0.3) came to 1.8 ± 0.16. Moreover, the “Tgfb gene expression in macrophages sorted from LLC tumors” value in experiment [2] (TAMs from LLC tumors in treated WT mice, normalized to GAPDH, vehicle 1 ± 0.7) was 0.35 ± 0.014. Besides, the “Arg gene expression in macrophages sorted from LLC tumors” value in experiment [2] (TAMs from LLC tumors in treated WT mice, normalized to GAPDH, vehicle 1 ± 0.9) worked out at 0.08 ± 0.004. In addition, in experiment [2] (setting [5]), the “Arginase (Arg) suppression in TAMs” value was found to be 98% and the “IL1 gene expression in TAMs, augmentation” value was determined as 8 fold. Further, in experiment [3] (setting [6]), the “Arg relative mRNA expression (M2 gene)” value is listed as 0.107 ± 0.01, the “Il10 relative mRNA expression (M2 gene)” value is 0.058 ± 0.01, the “Mmr relative mRNA expression (M2 gene)” value came to 0.143 ± 0.03 and the “Tgfb relative mRNA expression (M2 gene)” value is reported as 0.458 ± 0.01. In addition, the “Vegf relative mRNA expression (M2 gene)” value in experiment [3] (setting [6]) is given as 0.294 ± 0.04. Further, in experiment [3] (murine BMDMs, IL4 polarized, various concentrations), the “macrophage immunosuppressive M2 gene expression markers” value is reported as “suppressed”.

Values taken from US11472814B2, “Thienopyranones and furanopyranones as checkpoint inhibitors and modulators of anti-tumor immunity” (SignalRx Pharmaceuticals, Inc., priority 2017, dated 2022).
